The term IC50 denotes the concentration needed to halve the response being measured. Read a low IC50 as greater potency.

The source of these data is PMC6222487 (Molecules : A Journal of Synthetic Chemistry and Natural …, 2018).

For series [1], the target named is T1, Aβ (1-42) (Homo sapiens, UniProt P05067).
T1 construct: Aβ (1-42) peptide (Sigma-Aldrich); purchased Sigma-Aldrich
In words: biochemical. The note with it: self-induced aggregation, thioflavin-T; Aβ 20 μM, 37 °C, 24 h; NA = No potent inhibitory activity. On the procedure: A Thioflavin T-based fluorometric assay was performed in order to investigate the self-induced Aβ (1-42) aggregation. Briefly, compounds to be tested were firstly dissolved in DMSO to obtain a 10 mM solution and then diluted in phosphate buffer (pH 7.4) to provide a final concentration range. […] After incubation, thioflavin-T (5 μM in 50 mM glycine-NaOH buffer, pH 8.0) was added into the above 96-well microplate and the samples were diluted to a final volume of 150 μL. […] Each inhibitor was run in triplicate.

The next series deals with T2, AChE (from electric eel) (Electrophorus electricus, UniProt O42275).
T2 construct: purchased Merck & Co
T2 sequence (O42275 24-633): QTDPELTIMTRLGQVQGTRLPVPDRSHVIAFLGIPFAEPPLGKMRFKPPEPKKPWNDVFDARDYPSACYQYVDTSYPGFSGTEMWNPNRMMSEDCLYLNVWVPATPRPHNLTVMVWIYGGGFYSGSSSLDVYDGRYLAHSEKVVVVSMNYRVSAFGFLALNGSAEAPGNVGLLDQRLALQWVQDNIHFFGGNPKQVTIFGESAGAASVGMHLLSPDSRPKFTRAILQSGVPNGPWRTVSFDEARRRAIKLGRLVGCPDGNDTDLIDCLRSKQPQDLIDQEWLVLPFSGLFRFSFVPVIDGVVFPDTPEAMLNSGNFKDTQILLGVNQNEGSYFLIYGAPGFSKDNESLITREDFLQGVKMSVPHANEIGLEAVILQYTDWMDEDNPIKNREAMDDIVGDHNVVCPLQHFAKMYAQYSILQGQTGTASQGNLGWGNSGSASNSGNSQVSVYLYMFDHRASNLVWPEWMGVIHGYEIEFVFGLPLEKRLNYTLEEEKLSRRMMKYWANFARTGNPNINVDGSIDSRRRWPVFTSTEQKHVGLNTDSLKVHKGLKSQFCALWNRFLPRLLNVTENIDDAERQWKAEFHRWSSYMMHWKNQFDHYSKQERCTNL
In words: biochemical. In kind it is biochemical. The note with it: mean ± SEM; NA = No potent inhibitory activity. On the procedure:
(§1) Photometric 96-well microplates made from polystyrene (Thermo Scientific, Waltham, […]. USA) were used for measurement purposes.
(§2) AChE and BuChE inhibitory activities were measured by the spectrophotometric method of Ellman, with slight modification. Briefly, all in vitro assays were performed in 0.1 M NaH2PO4/Na2HPO4 buffer, pH 7.4, using a THERMO Enzyme-labeled Instrument. The enzyme solutions were prepared to obtain 2.0 units/mL in 2.0 mL aliquots. The assay medium (1 mL) consisted of phosphate buffer (pH 7.4), 10 μL of the enzyme, 30 μL of 0.01 M DTNB, and 30 μL of substrate (ATC or BTC) at a concentration of 0.01 M. The test and reference compounds were first dissolved in DMSO (5‰) and fetal bovine serum (1‰), and then diluted in 0.1 M NaH2PO4/Na2HPO4 buffer (pH 7.4) to provide a final concentration range. The inhibitors were added to the assay solution containing enzyme, buffer, and DTNB with pre-incubation for 20 min at 37 °C, prior to the addition of the substrate. The activity was determined by measuring the increase in absorbance at 410 nm at 1 min intervals at 37 °C. The data were calculated according to the method described by Ellman et al. Each concentration was assayed in triplicate. Blanks containing all of the components except AChE were included in the analyses.

In a further series the target is T3, AChE (Electrophorus electricus, UniProt O42275).
T3 construct: purchased Merck & Co
T3 sequence (O42275 24-633): as above
In words: Kinetic study of AChE inhibition (Lineweaver-Burk plot). In kind it is biochemical. As to conditions: substrate 0.1–0.4 mM. On the procedure: The assay solution (100 μL) was afforded by the addition of 30 μL of DTNB (0.01 M), 10 μL of 2 units/mL AChE, and 30 μL of substrate (ATC) to the phosphate buffer (0.1 M, pH 7.0). Three different concentrations of 8q were added to the assay solution with the AChE and pre-incubated for 20 min at 37 °C, followed by the addition of substrate in different concentrations. Kinetic characterization of the hydrolysis of ATC catalysed by AChE was carried out at 410 nm. A parallel control was made with the assay solution of no inhibitor for each time. The plots were assessed by a weighted least square analysis that assumed the variance of V to be a constant percentage of V for the entire data set.
Figure 2 Determination of the inhibitory type of selected compound 8q on AChE. Merged Lineweaver-Burk reciprocal plots of AChE initial velocity with increasing substrate concentrations (0.1–0.4 mM) in the absence or presence of 8q. Lines were derived from a weighted least-squares analysis of data points.

Series [2] has as its target T4, BuChE (from equine serum) (Equus caballus, UniProt P81908).
T4 construct: purchased Merck & Co; host or cells: equine serum
In words: biochemical. The note with it: mean ± SEM. Here is the method: as §1, §2

The next series deals with SH-SY5Y cells. The series is classed as cell-based. The note with it: for Cell viability: SH-SY5Y, 24 h, CCK-8. On the procedure: To probe whether such a type of target compounds involves cytotoxic effects, we respectively treated HepG2 cells and SH-SY5Y cells with several concentrations of the corresponding compound. Cell viability was determined by a CCK-8 assay.
SH-SY5Y cells (human neuroblastoma cell line from American Type Culture Collection, ATCC, Manassas, VA, USA) were seeded into 96-well plates at a density of 4 × 10^4 cells/mL in Dulbecco’s modified Eagle’s medium (DMEM) supplemented with 10% FBS and 100 U/mL of penicillin/streptomycin (Gino Biomedical Technology Co. LTD., Hangzhou, China), and incubated in a humidified atmosphere containing 5% CO2 at 37 °C. […] After this incubation, 10 μL/well of CCK-8 (5 mg/mL) was added and incubated at 37 °C for 4 h. The optical density (OD) of each well was measured using an Epoch Microplate Spectrophotometer (BioTek Instruments, Inc., Winooski, VT, USA) with a test wavelength of 450, 630 nm.

In the next series the test system is HepG2 cells. In kind it is cell-based. The note with it: for Cell viability: 24 h, CCK-8. On the procedure: One of the best documented side-effects of the drug discovery and development of AD is cytotoxicity. To probe whether such a type of target compounds involves cytotoxic effects, we respectively treated HepG2 cells and SH-SY5Y cells with several concentrations of the corresponding compound. Cell viability was determined by a CCK-8 assay. […].
HepG2 cells (human hepatocellular liver carcinoma cell line from American Type Culture Collection, ATCC) were cultured in Eagle’s minimum essential medium (EMEM) supplemented with 10% heat-inactivated fetal bovine serum (FBS), and 100 U/mL of penicillin/streptomycin (Gino Biomedical Technology Co. LTD., Hangzhou, China). Cultures were seeded into flasks containing supplemented medium and maintained at 37 °C in a humidified atmosphere of 5% CO2. For assays, cells (1.0 × 10^5 cells/well) were seeded in a 96-well plate in complete medium, the medium was removed after 24 h, and cells were exposed to the increasing concentrations of compounds 8q or 8r (0, 25, 50, 125, 200, 300, 400, and 500 μM) in DMEM with no serum for a further 24 h. Cell survival was measured through a CCK-8 assay. All compounds were dissolved in pure DMSO.

Series [3] deals with T1, Aβ (1-42). Briefly: Aβ (1-42) fibril formation monitored by transmission electron microscopy (TEM). The series is classed as biochemical. As to conditions: Aβ (1-42) 20 µM, compound 50 µM, 37 °C, 24 h. Here is the method: Aβ (1-42) peptide (Sigma-Aldrich) was added into a 96-well microplate and then diluted by phosphate buffer (10 mM, pH 7.4) to provide a concentration of 100 μM solution at 4 °C before use and the sample preparation procedure was the same as that used for the Thioflavin T assay. Aliquots (5 μL) of the samples were placed on a carbon-coated copper/rhodium grid for 2 min at room temperature. Each grid was stained with phosphomolybdic acid solution (3%, 5 μL) for 2 min. After draining off the excess staining solution, the specimen was transferred for imaging by transmission electron microscopy.

Where two headings read alike, the source gives them in different places.

T1 sequence (P05067 672-713): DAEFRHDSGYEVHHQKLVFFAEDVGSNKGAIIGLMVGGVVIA
T4 sequence (P81908 whole entry): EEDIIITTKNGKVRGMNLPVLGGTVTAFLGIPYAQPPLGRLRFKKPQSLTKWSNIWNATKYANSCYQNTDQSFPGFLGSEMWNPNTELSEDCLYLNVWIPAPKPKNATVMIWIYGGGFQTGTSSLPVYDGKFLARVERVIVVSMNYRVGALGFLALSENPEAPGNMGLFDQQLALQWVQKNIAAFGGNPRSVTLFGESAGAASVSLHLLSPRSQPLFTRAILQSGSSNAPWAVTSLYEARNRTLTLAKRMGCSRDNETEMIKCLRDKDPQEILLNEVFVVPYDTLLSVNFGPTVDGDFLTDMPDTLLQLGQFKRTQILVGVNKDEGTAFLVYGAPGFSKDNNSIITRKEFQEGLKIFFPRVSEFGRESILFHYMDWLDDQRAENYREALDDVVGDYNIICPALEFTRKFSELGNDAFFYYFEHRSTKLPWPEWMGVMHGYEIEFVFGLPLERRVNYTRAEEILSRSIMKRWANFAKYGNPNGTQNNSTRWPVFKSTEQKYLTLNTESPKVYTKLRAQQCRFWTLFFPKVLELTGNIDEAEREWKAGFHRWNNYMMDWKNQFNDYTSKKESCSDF

`Cc1nc(C)c(/C=C/C(=O)OCCCOC(=O)c2nc(C)c(C)nc2C)nc1C` [Compound 8q, 3-{[(2E)-3-(3,5,6-Trimethylpyrazin-2-yl)prop-2-enoyl]oxy}propyl 3,5,6-trimethylpyrazine-2-carboxylate]: the IC50 is 17.36 ± 0.027 µM at Aβ (1-42) [1], 0.00139 ± 0.00033 µM against AChE (from electric eel) and 4040 ± 910 µM in series [2]. For the same molecule, the “Inhibitory type on AChE” value at AChE is given as “mixed-type inhibitor”. Moreover, the “Cytotoxicity (in words)” value with SH-SY5Y cells (SH-SY5Y cells, up to 500 μM) was “no obvious cytotoxicity”; in the series with HepG2 cells (HepG2 cells, up to 500 μM), “no obvious cytotoxicity”. Moreover, the Cell viability with SH-SY5Y cells (25 µM) was 104.30 ± 0.29 ^ns percentage of control; in the series with SH-SY5Y cells (50 µM) it was 96.08 ± 0.78 ^ns percentage of control; in the series with SH-SY5Y cells (125 µM), 80.25 ± 1.53 percentage of control; in the series on SH-SY5Y cells (200 µM), 72.17 ±0.54 percentage of control; with SH-SY5Y cells (300 µM), 58.92 ± 0.70 percentage of control; in the series with SH-SY5Y cells (400 µM), 55.14 ± 0.50 percentage of control. Besides, the Cell viability in the series on SH-SY5Y cells (500 µM) was 55.28 ± 0.55 percentage of control; in the series with HepG2 cells (HepG2, 25 µM), 96.81 ± 3.05 ^ns percentage of control; with HepG2 cells (HepG2, 50 µM), 91.09 ± 0.99 ^ns percentage of control; in the series with HepG2 cells (HepG2, 125 µM) it was 81.19 ± 1.48 percentage of control; in the series on HepG2 cells (HepG2, 200 µM) it was 64.81 ± 0.54 percentage of control; with HepG2 cells (HepG2, 300 µM) it was 66.75 ± 1.11 percentage of control. The Cell viability is reported as 68.89 ± 0.51 percentage of control with HepG2 cells (HepG2, 400 µM) and 70.10 ± 1.98 percentage of control with HepG2 cells (HepG2, 500 µM). Also, the “Aβ amorphous deposits seen by TEM” value at Aβ (1-42) [3] is on record as “could obviously alleviate the formation of Aβ amorphous deposits compared with tacrine”. Moreover, on Aβ (1-42) [3], the “Aβ fibril formation seen by TEM” value was “no obvious Aβ fibril was detected”.
